Assay results published in patent US20100041756A1, “METHOD OF MODULATING B CELL FUNCTIONING” (priority 2004, published 2010).
Where “and” joins values, the source holds several entries; their conditions need not be identical. Identical values can stand only once.

Legend:
[1] = test system: B cells activated with LPS; test: B cell proliferation, BrdU uptake detected by FACS analysis (Example 2); assay type: cell-based; details: Mus musculus, LPS-induced, 100 μg/ml tranilast (FIG. 3), read-out: maximum inhibition of proliferation
Protocol: FIG. 3 is a graphical representation of the inhibition of B cell proliferation by tranilast. B-cells were activated in vitro with LPS, and 1-100 μg/ml tranilast. Proliferation was assessed using BrdU uptake, detected by FACs analysis. LPS induced proliferation in 72% of cells.
B cells were prepared for mouse spleen using rat anti-mouse IgM microbeads and the MACS system.
3 spleens were removed from male DBA/1 mice aged 8-12 weeks. A single cell suspension was prepared by cell-sieve.
Cells were cultured at 1×10^6 cells/ml in 2 ml complete RPMI with glutamine (10% FCS, 1% Pen/Strep, 50 μM 2-Mercaptoethanol, 1 mM Na-Pyruvate) for 48 h in the presence of LPS (20 μg/ml), and 100-25 μg/ml tranilast, or vehicle (DMSO).
20 μM BrdU (Sigma) was added to each well, and incubated overnight.
FACS analysis of staining was performed on the BD LSR Flow Cytometer.

[2] = test system: anti-type II collagen IgG1 and IgG2a; test: Serum anti-collagen antibody levels in mice with established CIA (ELISA); assay type: in vivo, mouse; details: 10 days treatment
Protocol: ELISA plates (Nunc, Uxbridge, UK) were coated with 2 μg/ml of bovine CII dissolved overnight in Tris Buffer (0.05 M Tris, containing 0.2 M NaCl, pH 7.4) blocked with 2% bovine serum albumin (BSA) and then incubated with serial dilutions of test sera. A reference sample was included on each plate. Bound total IgG, IgG1 or IgG2a was detected by incubation with HRP-conjugated sheep anti-mouse IgG, IgG1 or IgG2a, followed by TMB substrate. Optical density was measured at 450 nm.

IL-10 = test: Serum IL-10 in mice with established CIA (ELISA); assay type: in vivo, mouse; details: 10 days treatment (FIG. 7)
Protocol: Mice with established CIA were treated with 3,4-DAA or vehicle (n=7) for 10 days (see FIG. 6), then bled. IL-10 in the sera was measured by ELISA.
(§1) Inguinal lymph nodes were excised from Tranilast-treated and control mice. Alternatively, inguinal lymph nodes were removed from untreated arthritic mice (day 1-5 of arthritis) and Tranilast was added in vitro. In both cases, LNC were cultured in RPMI 1640 containing FCS (10% v/v), 2-mercaptoethanol (20 μM), L-glutamine (1% w/v), penicillin (100 U/ml) and streptomycin (100 μg/ml) in the presence or absence of type II collagen (50 μg/ml). Secreted cytokines (IFN-γ, IL-5, TNFα and IL-10) were measured after 72 h. by ELISA. In brief, 96 well ELISA plates were coated with the respective capture antibody, blocked with bovine serum albumin (2% w/v), and then incubated with LNC culture supernatants (neat) overnight at 4° C. After washing, bound cytokines were detected using biotinylated detect antibodies. A standard curve was generated using known concentrations of the appropriate recombinant cytokine and the concentrations of cytokines present in culture supernatants were estimated by reference to the standard curve.

[3] = test system: inguinal lymph node cells; test: Cytokine production by draining (inguinal) lymph node cells of treated CIA mice (ELISA); assay type: in vivo, mouse; details: for IL-5 production by lymph node cells: treated mice (FIG. 8)
Protocol: FIG. 8 is a graphical representation depicting that mice with established CIA were treated for 10 days with 3,4-DAA or vehicle control. Mice were then killed and draining (inguinal) lymph node cells were cultured for 72 h in the absence or presence of type II collagen.
as §1

[4] = test system: anti-type II collagen IgG1; test: Inhibition of anti-type II collagen antibody production in vivo (Example 5); set-up: species or system mouse
Protocol: Female DBA/1 mice (10 weeks of age) were immunised intraperitoneally on day 1 with 100 μg bovine type II collagen, dissolved in 0.05M Tris/0.2M NaCl, pH 7.4). Tranilast was dissolved in 1% sodium bicarbonate (10 mg/ml) by heating for 1 h at 70° C. Upon cooling, an emulsion was formed. Tranilast was administered intraperitoneally for three weeks (starting on day 1) at a dose of 400 mg/kg, every 2-3 days. Controls received vehicle alone. There were six mice per group.
On day 28 mice were bled and serum levels of anti-type II collagen IgG1 and IgG2a were measured by ELISA, as follows:
1. Polystyrene microtitre plates (Immulon 2, Dynatech Laboratories) were coated with DEAE-purified bovine type II collagen, dissolved in 0.2M NaCl/0.05M Tris, pH 7.4 (5 μg/ml), overnight at 4° C. 2. The plates were washed in phosphate-buffered saline (PBS), then blocked with BSA in PBS (2% w/v) for 1 h at room temperature. 3. After washing in PBS, containing Tween 20 (0.05% v/v), the sera were serially diluted in PBS/Tween, added to the plates and incubated for 2 h at room temperature. 4. After washing in PBS/Tween, bound IgG was detected by incubating goat anti-mouse IgG1 or anti-mouse IgG2a-HRP conjugate ( 1/1000) for 2 h at room temperature. 5. Develop colour reaction using TMB substrate. Stop reaction with 4.5NH2SO4 6. The plates were read at 450 nm on a microtitre plate reader.

[5] = individual mice, day 28, 400 mg/kg i.p. every 2-3 days for three weeks

Structure (SMILES): COc1ccc(/C=C/C(=O)Nc2ccccc2C(=O)O)cc1OC [Tranilast, 2-[[3-(3,4-dimethoxyphenyl)-1-oxo-2-propenyl]amino]benzoic acid]
- inhibition at 100 µg/mL [1]: 75%
- levels of anti-type II collagen IgG1 and IgG2a in sera [2]: no differences were observed
- circulating IL-10 levels (IL-10): dose-dependent increase
- circulating IL-10 levels (IL-10; listed as 3,4-DAA): increased IL-10 levels
- IFN-γ production by lymph node cells ([3]; cultured 72 h, mice given 400 mg/kg for 10 days (FIG. 8)): significantly reduced
- IL-5 production by lymph node cells ([3]; cultured 72 h): unaffected
- IL-5 production by lymph node cells ([3]; cultured 72 h, listed as 3,4-DAA): significantly reduced
- cytokine production on restimulation with collagen ([3]; cultured 72 h in the presence of type II collagen (FIG. 8)): differences between the groups were not significant
- Levels of anti-type II collagen IgG1 ([4]; group comparison, P=0.03, Mann Whitney test): significantly higher in the control group versus the Tranilast treated group
- OD450 (dilution 1/100), anti-type II collagen IgG1 [4, 5]: 0.07 and 0.06 (2×) and 0.31 and 0.08 (2×)
- Titre (reciprocal), anti-type II collagen IgG1 [4, 5]: <50 (4×) and <1/50 and 150
